In one experiment the target is KRAS G12C (Homo sapiens, UniProt P01116, G12C). Briefly: GDP-GTP exchange assay (KRAS_G12C exchange). Format: biochemical. To be noted: bodipy-GDP loaded KRAS G12C 2.5 nM, SOS1 150 nM, GppNHp; 2 hours pre-incubation, 2 hours reaction; read-out: G12C_exchange. The method, boiled down: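 Fluorescence exchange of bodipy-GDP for GppNHp, SOS1-driven, read at 485/520 nm; IC50 from four-parameter variable-slope fit. Both mutants used 2.5 nM final labelled protein and a 2 h compound pre-incubation. G12C reaction had 500 uM GppNHp and 150 nM SOS1 for 2 h; G12D ran 4 h.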

Experiment [1] deals with MIA PaCa-2 (KRAS G12C) cells. Kind of experiment: Cellular pERK HTRF assay (KRAS_G12C pERK). It counts as cell-based, human. As to conditions: Homo sapiens, MIA PaCa-2, 4 hours incubation, read-out: G12C_pERK. The method, boiled down:
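Phospho-ERK1/2 HTRF readout (665 and 620 nm) in lysed MIA PaCa-2 cells, antibodies incubated overnight at room temperature. Cells seeded the day before and treated with G12C compounds for 4 h at 37 °C; IC50 fitted to percent inhibition against log inhibitor concentration.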
(In general: Time-resolved FRET reads energy transfer from a long-lived donor to a nearby acceptor.)

Sequence of KRAS G12C (P01116 1-188 isoform P01116-2 G12C): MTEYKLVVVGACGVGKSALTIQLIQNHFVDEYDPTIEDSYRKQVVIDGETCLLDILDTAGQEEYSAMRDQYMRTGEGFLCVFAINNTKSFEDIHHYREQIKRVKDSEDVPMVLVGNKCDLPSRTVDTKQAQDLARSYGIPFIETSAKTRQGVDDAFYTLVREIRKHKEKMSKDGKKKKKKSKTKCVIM

Turning to `C=CC(=O)N1CC[C@H](n2cnc3c(N4CC(N(C)C)C4)nc4c(F)c(-c5cncc(Cl)c5C)c(Cl)cc4c32)C[C@H]1CC#N` [Example 89, 2-((2S,4S)-1-acryloyl-4-(8-chloro-7-(5-chloro-4-methylpyridin-3-yl)-4-(3-(dimethylamino)azetidin-1-yl)-6-fluoro-1H-imidazo[4,5-c]quinolin-1-yl)piperidin-2-yl)acetonitrile], the IC50 (at KRAS G12C; in experiment [1]) was not above 100 nM throughout.

As for `CC#CC(=O)N1CC[C@H](n2nnc3c(N4CC(N(C)C)C4)nc4c(F)c(-c5c(C)c(Cl)cc6[nH]ncc56)c(Cl)cc4c32)C[C@H]1CC#N` (single isomer, unassigned) [Example 178a], the IC50 (on KRAS G12C; in experiment [1]) was not above 100 nM in each case.

With `Cc1cc2c(nc(OC[C@@H]3CCCN3C)c3nnn([C@H]4CCN(C(=O)/C=C/C(F)F)[C@H](CC#N)C4)c32)c(F)c1-c1cccnc1C(F)(F)F` (single isomer, unassigned) [Example 168a], the IC50 (at KRAS G12C; in experiment [1]) was not above 100 nM each time.

As to `C=CC(=O)N1CC[C@H](n2nnc3c(OC[C@@H]4CCCN4C)nc4c(F)c(-c5ccccc5C(F)(F)F)c(C)cc4c32)C[C@H]1CC#N` (single isomer, unassigned) [Example 160a], the IC50 (at KRAS G12C; in experiment [1]) was not above 100 nM each time.

Take `CC#CC(=O)N1CC[C@H](n2nnc3c(OC[C@@H]4CCCN4C)nc4c(F)c(-c5ccccc5C(F)(F)F)c(C)cc4c32)C[C@H]1CC#N` [Example 162a, 2-((2S,4S)-1-(but-2-ynoyl)-4-(6-fluoro-8-methyl-4-(((S)-1-methylpyrrolidin-2-yl)methoxy)-7-(2-(trifluoromethyl)phenyl)-1H-[1,2,3]triazolo[4,5-c]quinolin-1-yl)piperidin-2-yl)acetonitrile]: the IC50 (at KRAS G12C; in experiment [1]) was not above 100 nM each time.

Take `COC/C=C/C(=O)N1CC[C@H](n2nnc3c(O[C@@H](C)CN(C)C)nc4c(F)c(-c5cccc(C)c5C)c(C)cc4c32)C[C@H]1CC#N` [Example 145, 2-((2S,4S)-4-(4-(((S)-1-(dimethylamino)propan-2-yl)oxy)-7-(2,3-dimethylphenyl)-6-fluoro-8-methyl-1H-[1,2,3]triazolo[4,5-c]quinolin-1-yl)-1-((E)-4-methoxybut-2-enoyl)piperidin-2-yl)acetonitrile]: the IC50 (at KRAS G12C; in experiment [1]) was not above 100 nM throughout.

Regarding `Cc1cccc(-c2c(C)cc3c(nc(N4CC(C)(N(C)C)C4)c4nnn([C@H]5CCN(C(=O)/C=C/CF)[C@H](CC#N)C5)c43)c2F)c1Cl` [Example 256, 2-((2S,4S)-4-(7-(2-chloro-3-methylphenyl)-4-(3-(dimethylamino)-3-methylazetidin-1-yl)-6-fluoro-8-methyl-1H-[1,2,3]triazolo[4,5-c]quinolin-1-yl)-1-((E)-4-fluorobut-2-enoyl)piperidin-2-yl)acetonitrile], the IC50 (at KRAS G12C; in experiment [1]) was not above 100 nM throughout.

In the case of `C=CC(=O)N1CC[C@H](n2cnc3c(N4CC(N(C)C)C4)nc4c(F)c(-c5ccccc5F)c(Cl)cc4c32)C[C@H]1CC#N` [Example 56, 2-((2S,4S)-1-acryloyl-4-(8-chloro-4-(3-(dimethylamino)azetidin-1-yl)-6-fluoro-7-(2-fluorophenyl)-1H-imidazo[4,5-c]quinolin-1-yl)piperidin-2-yl)acetonitrile], the IC50 (on KRAS G12C; in experiment [1]) was not above 100 nM throughout.

`C=CC(=O)N1CC[C@H](n2nnc3c(N4CC(C)(N(C)C)C4)nc4c(F)c(-c5ccc(F)c6cccnc56)c(C(F)(F)F)cc4c32)C[C@H]1CC#N` (single isomer, unassigned) [Example 233a]: the IC50 (on KRAS G12C; in experiment [1]) was not above 100 nM each time.

As to `C=CC(=O)N1CC[C@H](n2nnc3c(-c4cccnc4C)nc4c(F)c(-c5cccc(Cl)c5C)c(Cl)cc4c32)C[C@H]1CC#N` [Example 174, 2-((2S,4S)-1-acryloyl-4-(8-chloro-7-(3-chloro-2-methylphenyl)-6-fluoro-4-(2-methylpyridin-3-yl)-1H-[1,2,3]triazolo[4,5-c]quinolin-1-yl)piperidin-2-yl)acetonitrile], the IC50 (on KRAS G12C; in experiment [1]) was not above 100 nM in each case.

With `C=CC(=O)N1CCC(n2cnc3c(=O)n(C)c4c(F)c(-c5cc(O)cc6ccccc56)c(Cl)cc4c32)C1` (racemic) [Example 33, 1-(1-acryloylpyrrolidin-3-yl)-8-chloro-6-fluoro-7-(3-hydroxynaphthalen-1-yl)-5-methyl-1,5-dihydro-4H-imidazo[4,5-c]quinolin-4-one], the results for the IC50 (at KRAS G12C; in experiment [1]) were 100 to 1000 nM and 1000 to 5000 nM, respectively.

In the case of `C=CC(=O)N1CC[C@H](n2nnc3c(O[C@@H](C)CN(C)C)nc4c(F)c(-c5ccc(F)cc5)c(C)cc4c32)C[C@H]1CC#N` [Example 132, 2-((2S,4S)-1-acryloyl-4-(4-(((S)-1-(dimethylamino)propan-2-yl)oxy)-6-fluoro-7-(4-fluorophenyl)-8-methyl-1H-[1,2,3]triazolo[4,5-c]quinolin-1-yl)piperidin-2-yl)acetonitrile], the IC50 (on KRAS G12C; in experiment [1]) was not above 100 nM in each case.

As to `CC#CC(=O)N1CC[C@H](n2nnc3c(O[C@@H](C)CN(C)C)nc4c(F)c(-c5ccc(F)cc5)c(Cl)cc4c32)C[C@H]1CC#N` [Example 129, 2-((2S,4S)-1-(but-2-ynoyl)-4-(8-chloro-4-(((S)-1-(dimethylamino)propan-2-yl)oxy)-6-fluoro-7-(4-fluorophenyl)-1H-[1,2,3]triazolo[4,5-c]quinolin-1-yl)piperidin-2-yl)acetonitrile], the IC50 (at KRAS G12C; in experiment [1]) was not above 100 nM in each case.

For the compound `CC#CC(=O)N1CC[C@H](n2nnc3c(N4CC(N(C)C)C4)nc4c(F)c(-c5cccc(C)c5Cl)c(C)cc4c32)C[C@H]1CC#N` [Example 250, 2-((2S,4S)-1-(but-2-ynoyl)-4-(7-(2-chloro-3-methylphenyl)-4-(3-(dimethylamino)azetidin-1-yl)-6-fluoro-8-methyl-1H-[1,2,3]triazolo[4,5-c]quinolin-1-yl)piperidin-2-yl)acetonitrile], the IC50 (at KRAS G12C; in experiment [1]) was not above 100 nM each time.

Take `C=CC(=O)N1CC[C@H](n2cnc3c(N4CC(N(C)C)C4)nc4c(F)c(-c5ccc(F)c6ccccc56)c(Cl)cc4c32)C[C@H]1CC#N` [Example 67, 2-((2S,4S)-1-acryloyl-4-(8-chloro-4-(3-(dimethylamino)azetidin-1-yl)-6-fluoro-7-(4-fluoronaphthalen-1-yl)-1H-imidazo[4,5-c]quinolin-1-yl)piperidin-2-yl)acetonitrile]: the IC50 (at KRAS G12C; in experiment [1]) was not above 100 nM each time.

`Cc1nccn1-c1nc2c(F)c(-c3ccccc3)c(Cl)cc2c2c1ncn2[C@H]1CCN(C(=O)/C=C/CN(C)C)[C@H](CC#N)C1` [Example 151, 2-((2S,4S)-4-(8-chloro-6-fluoro-4-(2-methyl-1H-imidazol-1-yl)-7-phenyl-1H-imidazo[4,5-c]quinolin-1-yl)-1-((E)-4-(dimethylamino)but-2-enoyl)piperidin-2-yl)acetonitrile]: the IC50 (at KRAS G12C; in experiment [1]) was not above 100 nM each time.

Turning to `COC/C=C/C(=O)N1CC[C@H](n2nnc3c(N4CC(C)(N(C)C)C4)nc4c(F)c(-c5c(C)c(F)cc6[nH]ncc56)c(C)cc4c32)C[C@H]1CC#N` [Example 203a, 2-((2S,4S)-4-(4-(3-(dimethylamino)-3-methylazetidin-1-yl)-6-fluoro-7-(6-fluoro-5-methyl-1H-indazol-4-yl)-8-methyl-1H-[1,2,3]triazolo[4,5-c]quinolin-1-yl)-1-((E)-4-methoxybut-2-enoyl)piperidin-2-yl)acetonitrile], the IC50 (on KRAS G12C; in experiment [1]) was not above 100 nM throughout.

As for `CC#CC(=O)N1CCC(n2cnc3c(N4CC(C)(N(C)C)C4)nc4c(F)c(-c5cccc6cccc(Cl)c56)c(C)cc4c32)C[C@H]1CC#N` (stereo partly drawn) [Example 222, 2-((2S)-1-(but-2-ynoyl)-4-(7-(8-chloronaphthalen-1-yl)-4-(3-(dimethylamino)-3-methylazetidin-1-yl)-6-fluoro-8-methyl-1H-imidazo[4,5-c]quinolin-1-yl)piperidin-2-yl)acetonitrile], the IC50 (at KRAS G12C; in experiment [1]) was not above 100 nM each time.

`CC#CC(=O)N1CC[C@H](n2nnc3c(OC[C@@H]4CCCN4C)nc4c(Cl)c(-c5cccc(Cl)c5Cl)c(Cl)cc4c32)C[C@H]1CC#N` [Example 278, 2-((2S,4S)-1-(but-2-ynoyl)-4-(6,8-dichloro-7-(2,3-dichlorophenyl)-4-(((S)-1-methylpyrrolidin-2-yl)methoxy)-1H-[1,2,3]triazolo[4,5-c]quinolin-1-yl)piperidin-2-yl)acetonitrile]: the IC50 (at KRAS G12C; in experiment [1]) was not above 100 nM in each case.

Consider `C=CC(=O)N1CC[C@H](n2nnc3c(OC[C@@H]4CCCN4C)nc4c(F)c(-c5cccc(C)c5Cl)c(C)cc4c32)C[C@H]1CC#N` [Example 251, 2-((2S,4S)-1-acryloyl-4-(7-(2-chloro-3-methylphenyl)-6-fluoro-8-methyl-4-(((S)-1-methylpyrrolidin-2-yl)methoxy)-1H-[1,2,3]triazolo[4,5-c]quinolin-1-yl)piperidin-2-yl)acetonitrile], for which the IC50 (at KRAS G12C; in experiment [1]) was not above 100 nM each time.

The record behind these values is patent US20210269434A1, “TRICYCLIC COMPOUNDS AS INHIBITORS OF KRAS” (Incyte Corporation, priority 2020, published 2021).
